Results from PubChem BioAssay AID1259407 (Chemical Carcinogenesis Research Information System (CCRIS), 2018).
Calls of active or inactive are those of the source. No rule for the calls is given here.

System: CCRIS mutagenicity, Ames/micronucleus/aberration tests
Assay: CCRIS mutagenicity studies
[1] = Test System: AMES SALMONELLA TYPHIMURIUM, Strain/Indicator: TA98, Metabolic Activation: NONE, Method: PREINCUBATION
[2] = Test System: AMES SALMONELLA TYPHIMURIUM, Strain/Indicator: TA98, Metabolic Activation: NONE, Method: STANDARD PLATE
[3] = Test System: AMES SALMONELLA TYPHIMURIUM, Strain/Indicator: TA100, Metabolic Activation: NONE, Method: PREINCUBATION
[4] = Test System: AMES SALMONELLA TYPHIMURIUM, Strain/Indicator: TA100, Metabolic Activation: NONE, Method: STANDARD PLATE
[5] = Test System: AMES SALMONELLA TYPHIMURIUM, Strain/Indicator: TA1535, Metabolic Activation: NONE, Method: PREINCUBATION

SMILES: Nc1cc2nc3ccccc3nc2cc1N
- mutagenic call (Test System: AMES SALMONELLA TYPHIMURIUM, Strain/Indicator: TA98(1,8-DNP6), Metabolic Activation: NONE, Method: PREINCUBATION): inactive; negative
- mutagenic call (Test System: AMES SALMONELLA TYPHIMURIUM, Strain/Indicator: TA98(1,8-DNP6), Metabolic Activation: S-9, Method: PREINCUBATION): active; positive
- mutagenic call [1]: inactive; negative
- mutagenic call [2]: active; positive
- mutagenic call (Test System: AMES SALMONELLA TYPHIMURIUM, Strain/Indicator: TA98, Metabolic Activation: RAT, LIVER, S-9, AROCLOR 1254, Method: STANDARD PLATE): active; positive
- mutagenic call (Test System: AMES SALMONELLA TYPHIMURIUM, Strain/Indicator: TA98, Metabolic Activation: S-9, Method: PREINCUBATION): active; positive
- mutagenic call (Test System: AMES SALMONELLA TYPHIMURIUM, Strain/Indicator: TA98, Metabolic Activation: S-9, Method: SUSPENSION/PLATE): active; positive
- mutagenic call (Test System: AMES SALMONELLA TYPHIMURIUM, Strain/Indicator: TA100(OAT-), Metabolic Activation: NONE, Method: PREINCUBATION): inactive; negative
- mutagenic call (Test System: AMES SALMONELLA TYPHIMURIUM, Strain/Indicator: TA100(OAT-), Metabolic Activation: S-9, Method: PREINCUBATION): inactive; negative
- mutagenic call [3]: inactive; negative
- mutagenic call [4]: inactive; negative
- mutagenic call (Test System: AMES SALMONELLA TYPHIMURIUM, Strain/Indicator: TA100, Metabolic Activation: RAT, LIVER, S-9, AROCLOR 1254, Method: STANDARD PLATE): active; positive
- mutagenic call (Test System: AMES SALMONELLA TYPHIMURIUM, Strain/Indicator: TA100, Metabolic Activation: S-9, Method: PREINCUBATION): active; positive
- mutagenic call (Test System: AMES SALMONELLA TYPHIMURIUM, Strain/Indicator: TA1029, Metabolic Activation: S-9, Method: PREINCUBATION): active; positive
- mutagenic call (Test System: AMES SALMONELLA TYPHIMURIUM, Strain/Indicator: TA1537, Metabolic Activation: NONE, Method: STANDARD PLATE): active; positive
- mutagenic call (Test System: AMES SALMONELLA TYPHIMURIUM, Strain/Indicator: TA1537, Metabolic Activation: RAT, LIVER, S-9, AROCLOR 1254, Method: STANDARD PLATE): active; positive
- mutagenic call (Test System: AMES SALMONELLA TYPHIMURIUM, Strain/Indicator: YG1024, Metabolic Activation: PLANT CELL-FREE EXTRACT, Method: PREINCUBATION): active; positive
- mutagenic call (Test System: AMES SALMONELLA TYPHIMURIUM, Strain/Indicator: YG1024, Metabolic Activation: S-9, Method: PREINCUBATION): active; positive
- mutagenic call (Test System: AMES SALMONELLA TYPHIMURIUM, Strain/Indicator: YG1029, Metabolic Activation: PLANT CELL-FREE EXTRACT, Method: PREINCUBATION): active; positive
- mutagenic call (Test System: AMES SALMONELLA TYPHIMURIUM, Strain/Indicator: YG1029, Metabolic Activation: S-9, Method: PREINCUBATION): active; positive

SMILES: CCOC(=O)C(=NNc1ccc(-c2ccc(NN=C(C(=O)OCC)C(=O)OCC)c(OC)c2)cc1OC)C(=O)OCC
- mutagenic call (Test System: AMES SALMONELLA TYPHIMURIUM, Strain/Indicator: TA98, Metabolic Activation: HAMSTER, LIVER, S-9, Method: PREINCUBATION (PRIVAL METHOD)): inactive; negative

SMILES: Cc1ccc2cc3c(ccc4ccccc43)c3c2c1CC3=O
- mutagenic call (Test System: CHINESE HAMSTER V-79, Strain/Indicator: V-79/8-AZAGUANINE, Metabolic Activation: RAT, LIVER, S-9, AROCLOR 1254, Method: STANDARD PLATE): active; positive

SMILES: CCOC(=O)CNC(=O)C=[N+]=[N-]
- mutagenic call (Test System: AMES SALMONELLA TYPHIMURIUM, Strain/Indicator: TA1535, Metabolic Activation: NONE, Method: STANDARD PLATE): active; positive
- mutagenic call (Test System: UDS RODENT PRIMARY CELLS, Strain/Indicator: THY INCORP (NON-S-PHASE), Metabolic Activation: NONE, Method: AUTORADIOGRAPHY): active; positive

SMILES: Cc1ccc(C)c(N)c1
- mutagenic call (Test System: AMES SALMONELLA TYPHIMURIUM, Strain/Indicator: TA97, Metabolic Activation: HAMSTER, LIVER, S-9, AROCLOR 1254 (10%), Method: PREINCUBATION): inactive; negative
- mutagenic call (Test System: AMES SALMONELLA TYPHIMURIUM, Strain/Indicator: TA97, Metabolic Activation: NONE, Method: PREINCUBATION): inactive; negative
- mutagenic call (Test System: AMES SALMONELLA TYPHIMURIUM, Strain/Indicator: TA97, Metabolic Activation: RAT, LIVER, S-9, AROCLOR 1254 (10%), Method: PREINCUBATION): inactive; negative
- mutagenic call (Test System: AMES SALMONELLA TYPHIMURIUM, Strain/Indicator: TA98, Metabolic Activation: HAMSTER, LIVER, S-9, AROCLOR 1254 (10%), Method: PREINCUBATION): active; positive
- mutagenic call [1]: inactive; negative
- mutagenic call (Test System: AMES SALMONELLA TYPHIMURIUM, Strain/Indicator: TA98, Metabolic Activation: RAT, LIVER, S-9, AROCLOR 1254 (10%), Method: PREINCUBATION): active; positive
- mutagenic call (Test System: AMES SALMONELLA TYPHIMURIUM, Strain/Indicator: TA100, Metabolic Activation: HAMSTER, LIVER, S-9, AROCLOR 1254 (10%), Method: PREINCUBATION): active; positive
- mutagenic call [3]: inactive; negative
- mutagenic call (Test System: AMES SALMONELLA TYPHIMURIUM, Strain/Indicator: TA100, Metabolic Activation: RAT, LIVER, S-9, AROCLOR 1254 (10%), Method: PREINCUBATION): inactive; negative
- mutagenic call (Test System: AMES SALMONELLA TYPHIMURIUM, Strain/Indicator: TA1535, Metabolic Activation: HAMSTER, LIVER, S-9, AROCLOR 1254 (10%), Method: PREINCUBATION): inactive; negative
- mutagenic call [5]: inactive; negative
- mutagenic call (Test System: AMES SALMONELLA TYPHIMURIUM, Strain/Indicator: TA1535, Metabolic Activation: RAT, LIVER, S-9, AROCLOR 1254 (10%), Method: PREINCUBATION): inactive; negative
- mutagenic call (Test System: AMES SALMONELLA TYPHIMURIUM, Strain/Indicator: TA1537, Metabolic Activation: HAMSTER, LIVER, S-9, AROCLOR 1254 (10%), Method: PREINCUBATION): active; positive
- mutagenic call (Test System: AMES SALMONELLA TYPHIMURIUM, Strain/Indicator: TA1537, Metabolic Activation: RAT, LIVER, S-9, AROCLOR 1254 (10%), Method: PREINCUBATION): inactive; negative

SMILES: Cc1cccc(OP(=O)(Oc2cccc(C)c2)Oc2cccc(C)c2)c1
- mutagenic call (Test System: AMES SALMONELLA TYPHIMURIUM, Strain/Indicator: TA98, Metabolic Activation: HAMSTER, LIVER, S-9, AROCLOR 1254, Method: PREINCUBATION): inactive; negative
- mutagenic call [1]: inactive; negative
- mutagenic call (Test System: AMES SALMONELLA TYPHIMURIUM, Strain/Indicator: TA98, Metabolic Activation: RAT, LIVER, S-9, AROCLOR 1254, Method: PREINCUBATION): inactive; negative
- mutagenic call (Test System: AMES SALMONELLA TYPHIMURIUM, Strain/Indicator: TA100, Metabolic Activation: HAMSTER, LIVER, S-9, AROCLOR 1254, Method: PREINCUBATION): inactive; negative
- mutagenic call [3]: inactive; negative
- mutagenic call (Test System: AMES SALMONELLA TYPHIMURIUM, Strain/Indicator: TA100, Metabolic Activation: RAT, LIVER, S-9, AROCLOR 1254, Method: PREINCUBATION): inactive; negative
- mutagenic call (Test System: AMES SALMONELLA TYPHIMURIUM, Strain/Indicator: TA1535, Metabolic Activation: HAMSTER, LIVER, S-9, AROCLOR 1254, Method: PREINCUBATION): inactive; negative
- mutagenic call [5]: inactive; negative
- mutagenic call (Test System: AMES SALMONELLA TYPHIMURIUM, Strain/Indicator: TA1535, Metabolic Activation: RAT, LIVER, S-9, AROCLOR 1254, Method: PREINCUBATION): inactive; negative
- mutagenic call (Test System: AMES SALMONELLA TYPHIMURIUM, Strain/Indicator: TA1537, Metabolic Activation: HAMSTER, LIVER, S-9, AROCLOR 1254, Method: PREINCUBATION): inactive; negative
- mutagenic call (Test System: AMES SALMONELLA TYPHIMURIUM, Strain/Indicator: TA1537, Metabolic Activation: NONE, Method: PREINCUBATION): inactive; negative
- mutagenic call (Test System: AMES SALMONELLA TYPHIMURIUM, Strain/Indicator: TA1537, Metabolic Activation: RAT, LIVER, S-9, AROCLOR 1254, Method: PREINCUBATION): inactive; negative

SMILES: COP(=S)(NC(C)C)Oc1ccccc1C(=O)OC(C)C (centres undefined)
- mutagenic call [2]: inactive; negative
- mutagenic call (Test System: AMES SALMONELLA TYPHIMURIUM, Strain/Indicator: TA98, Metabolic Activation: RAT, LIVER, S-9, PCB, Method: STANDARD PLATE): inactive; negative
- mutagenic call [4]: inactive; negative
- mutagenic call (Test System: AMES SALMONELLA TYPHIMURIUM, Strain/Indicator: TA100, Metabolic Activation: RAT, LIVER, S-9, PCB, Method: STANDARD PLATE): inactive; negative
